Here are results for 55 compounds from US20130131075A1, “NEW COMPOUNDS” (Boehringer Ingelheim International GmbH, priority 2009, published 2013).

SMILES strings stand for the structures.

What is called inhibition is the change of the read-out against control, counted positive when it falls. The term Ki denotes a measure of affinity in units of concentration, obtained from inhibition or displacement. Read a high Ki as a looser hold on the target.

The assay concerns the target T1, cynomolgus BK1-receptor (Macaca fascicularis, UniProt Q3BCU0).
T1 construct: expressed in transfected cells; host or cells: CHO cells (homogenate)
T1 sequence (Q3BCU0 1-352): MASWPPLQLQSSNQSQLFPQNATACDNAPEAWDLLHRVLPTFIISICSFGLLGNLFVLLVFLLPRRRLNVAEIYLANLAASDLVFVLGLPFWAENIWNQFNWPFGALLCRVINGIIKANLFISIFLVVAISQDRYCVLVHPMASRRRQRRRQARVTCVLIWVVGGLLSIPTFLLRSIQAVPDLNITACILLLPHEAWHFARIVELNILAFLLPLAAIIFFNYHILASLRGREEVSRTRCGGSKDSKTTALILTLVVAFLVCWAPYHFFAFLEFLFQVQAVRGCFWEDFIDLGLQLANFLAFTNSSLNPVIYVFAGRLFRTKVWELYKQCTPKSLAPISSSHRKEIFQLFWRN
Nature of the assay: cynoBK1-receptor binding assay. The note with it: CHO cells expressing cynomolgus BK1-receptor, radioligand kallidine (DesArg10,Leu9); for inhibition at 10 µM: at 10 μgmol/L. The procedure: Description of the Method of Binding the cynoBK1-Receptor
CHO cells that express the cynomolgus BK1-receptor are cultivated in “HAM'S F-12 Medium”. The medium is removed from confluent cultures, the cells are washed with PBS buffer, scraped off or detached using Versene and isolated by centrifuging. Then the cells are homogenised in suspension, the homogenate is centrifuged and resuspended. After the protein content has been determined 200 μl of the homogenate (50 to 250 μg protein/assay) are incubated for 60-180 minutes at ambient temperature with 0.5 to 5.0 nM kallidine (DesArg10,Leu9), [3,4-Prolyl-3,43H(N)] and increasing concentrations of the test substance in a total volume of 250 μl. The incubation is stopped by rapid filtration through GF/B glass fibre filters that have been pre-treated with polyethyleneimine (0.3%). The radioactivity bound to the protein is measured with a TopCount NXT. The radioactivity bound in the presence of 1.0 μM kallidine (DesArg10) is defined as non-specific binding. The concentration binding curve may be analysed using computer-aided non-linear curve fitting to determine the corresponding Ki value for the test substance.
Test results of the cynoBK1-receptor binding assay: […]

Take `O=C(Cc1ccccn1)N[C@@]1(C(=O)NCc2ccc(Nc3ccccc3C(F)(F)F)cc2)CCOC1` [(59)]: the inhibition at 10 µM stood at 22%.

Regarding `O=C(N[C@@]1(C(=O)NCc2ccc(Nc3ccccc3C(F)(F)F)cc2)CCOC1)C1CCOC1` (some centres unmarked) [(60)], the inhibition at 10 µM worked out at 84%.

In the case of `O=C(N[C@@]1(C(=O)NCc2ccc(Nc3ccccc3C(F)(F)F)cc2)CCOC1)c1ccnc(Cl)c1` [(61)], the Ki was more than 500 nM and the inhibition at 10 µM was 97%.

On to `O=C(N[C@@]1(C(=O)NCc2ccc(Nc3ccccc3C(F)(F)F)cc2)CCOC1)c1ccc(=O)[nH]n1` [(62)], for which the inhibition at 10 µM stood at 60%.

As to `Nc1cc(C(=O)N[C@@]2(C(=O)NCc3ccc(Nc4ccccc4C(F)(F)F)cc3)CCOC2)ccn1` [(63)], affinity was put at a Ki of 118 nM and the inhibition at 10 µM was 108%.

Regarding `O=C(N[C@@]1(C(=O)NCc2ccc(Nc3ccccc3C(F)(F)F)cc2)CCOC1)c1ccnnc1` [(64)], affinity was put at a Ki of 98 nM and the inhibition at 10 µM is 109%.

Regarding `O=C(N[C@@]1(C(=O)NCc2ccc(Nc3ccccc3C(F)(F)F)cc2)CCOC1)C1CCOCC1` [(65)], the inhibition at 10 µM stood at 76%.

Regarding `N#C/C(=N\O)C(=O)N[C@@]1(C(=O)NCc2ccc(Nc3ccccc3C(F)(F)F)cc2)CCOC1` [(66)], the inhibition at 10 µM was 81%.

Take `O=C(N[C@@]1(C(=O)NCc2ccc(Nc3ccccc3C(F)(F)F)cc2)CCOC1)c1cccc(Cl)n1` [(67)]: the inhibition at 10 µM was determined as 63%.

`COc1ccc(C(=O)N[C@@]2(C(=O)NCc3ccc(Nc4ccccc4C(F)(F)F)cc3)CCOC2)o1` [(68)]: the inhibition at 10 µM stood at 78%.

Take `O=C1CCCC(C(=O)N[C@@]2(C(=O)NCc3ccc(Nc4ccccc4C(F)(F)F)cc3)CCOC2)C1` (some centres unmarked) [(69)]: the inhibition at 10 µM turned out to be 42%.

On to `O=C(N[C@@]1(C(=O)NCc2ccc(Nc3ccccc3C(F)(F)F)cc2)CCOC1)c1cccc(O)n1` [(70)], for which the inhibition at 10 µM worked out at 107%.

For `CN1CC(C(=O)N[C@@]2(C(=O)NCc3ccc(Nc4ccccc4C(F)(F)F)cc3)CCOC2)CC1=O` (some centres unmarked) [(71)], the inhibition at 10 µM worked out at 80%.

Regarding `Nc1cccc(C(=O)N[C@@]2(C(=O)NCc3ccc(Nc4ccccc4C(F)(F)F)cc3)CCOC2)n1` [(72)], the Ki is 416 nM and the inhibition at 10 µM came to 89%.

Consider `O=C(N[C@@]1(C(=O)NCc2ccc(Nc3ccccc3C(F)(F)F)cc2)CCOC1)c1cccnn1` [(74)], for which the inhibition at 10 µM was found to be 56%.

For `COC1CC(C(=O)N[C@@]2(C(=O)NCc3ccc(Nc4ccccc4C(F)(F)F)cc3)CCOC2)C1` (some centres unmarked) [(75)], the inhibition at 10 µM was determined as 71%.

Turning to `O=C1CCC(C(=O)N[C@@]2(C(=O)NCc3ccc(Nc4ccccc4C(F)(F)F)cc3)CCOC2)CN1` (some centres unmarked) [(76)], the inhibition at 10 µM worked out at 80%.

Consider `Cc1ncncc1C(=O)N[C@@]1(C(=O)NCc2ccc(Nc3ccccc3C(F)(F)F)cc2)CCOC1` [(77)], for which the inhibition at 10 µM turned out to be 96%.

For the compound `O=C1CCC(C(=O)N[C@@]2(C(=O)NCc3ccc(Nc4ccccc4C(F)(F)F)cc3)CCOC2)C1` (some centres unmarked) [(78)], the inhibition at 10 µM stood at 73%.

For `COc1cc(C(=O)N[C@@]2(C(=O)NCc3ccc(Nc4ccccc4C(F)(F)F)cc3)CCOC2)ccn1` [(79)], the Ki is 292 nM and the inhibition at 10 µM was determined as 104%.

Consider `Cc1ncc(C(=O)N[C@@]2(C(=O)NCc3ccc(Nc4ccccc4C(F)(F)F)cc3)CCOC2)c(C)n1` [(80)], for which the inhibition at 10 µM came to 88%.

Take `COc1ncc(C(=O)N[C@@]2(C(=O)NCc3ccc(Nc4ccccc4C(F)(F)F)cc3)CCOC2)cn1` [(81)]: the inhibition at 10 µM came to 113%.

Turning to `CNc1ncc(C(=O)N[C@@]2(C(=O)NCc3ccc(Nc4ccccc4C(F)(F)F)cc3)CCOC2)cn1` [(82)], the inhibition at 10 µM is 107%.

For `Cc1ncc(C(=O)N[C@@]2(C(=O)NCc3ccc(Nc4ccccc4C(F)(F)F)cc3)CCOC2)cn1` [(83)], the Ki amounted to 9 nM and the inhibition at 10 µM was determined as 113%.

Turning to `Cn1ccc(C(=O)N[C@@]2(C(=O)NCc3ccc(Nc4ccccc4C(F)(F)F)cc3)CCOC2)cc1=O` [(84)], affinity was put at a Ki of 90 nM and the inhibition at 10 µM amounted to 104%.

`O=C(N[C@@]1(C(=O)NCc2ccc(Nc3ccccc3C(F)(F)F)cc2)CCOC1)c1cnco1` [(85)]: the inhibition at 10 µM is 93%.

On to `O=C(N[C@@]1(C(=O)NCc2ccc(Nc3ccccc3C(F)(F)F)cc2)CCOC1)c1ccnc(O)c1` [(86)], for which the affinity, expressed as Ki, was 100 nM and the inhibition at 10 µM was determined as 108%.

For the compound `O=C(N[C@@]1(C(=O)NCc2ccc(Nc3ccccc3C(F)(F)F)cc2)CCOC1)c1cncc(O)c1` [(87)], the inhibition at 10 µM stood at 112%.

For `Cn1cc(C(=O)N[C@@]2(C(=O)NCc3ccc(Nc4ccccc4C(F)(F)F)cc3)CCOC2)nn1` [(88)], the inhibition at 10 µM was 80%.

Turning to `O=C(N[C@@]1(C(=O)NCc2ccc(Nc3ccccc3C(F)(F)F)cc2)CCOC1)c1cncs1` [(89)], the inhibition at 10 µM amounted to 96%.

`O=C(N[C@@]1(C(=O)NCc2ccc(Nc3ccccc3C(F)(F)F)cc2)CCOC1)c1cnc(O)nc1` [(90)]: the affinity corresponds to a Ki of 135 nM and the inhibition at 10 µM stood at 109%.

`CC(C(=O)N[C@@]1(C(=O)NCc2ccc(Nc3ccccc3C(F)(F)F)cc2)CCOC1)C(F)(F)F` (some centres unmarked) [(91)]: the inhibition at 10 µM amounted to 100%.

As for `COc1cncc(C(=O)N[C@@]2(C(=O)NCc3ccc(Nc4ccccc4C(F)(F)F)cc3)CCOC2)c1` [(92)], the affinity corresponds to a Ki of 62 nM and the inhibition at 10 µM worked out at 110%.

Consider `O=C(N[C@@]1(C(=O)NCc2ccc(Nc3ccccc3C(F)(F)F)cc2)CCOC1)c1ccoc1` [(93)], for which the inhibition at 10 µM is 84%.

With `O=C(N[C@@]1(C(=O)NCc2ccc(Nc3ccccc3C(F)(F)F)cc2)CCOC1)c1ccco1` [(94)], the inhibition at 10 µM was 57%.

Take `O=C(N[C@@]1(C(=O)NCc2ccc(Nc3ccccc3C(F)(F)F)cc2)CCOC1)c1ccncc1` [(95)]: the inhibition at 10 µM turned out to be 86%.

For `O=C(N[C@@]1(C(=O)NCc2ccc(Nc3ccccc3C(F)(F)F)cc2)CCOC1)c1cnccn1` [(96)], the inhibition at 10 µM is 78%.

`O=C(N[C@@]1(C(=O)NCc2ccc(Nc3ccccc3C(F)(F)F)cc2)CCOC1)c1cccc(O)c1` [(97)] returned a Ki of 132 nM.

In the case of `O=C(N[C@@]1(C(=O)NCc2ccc(Nc3ccccc3C(F)(F)F)cc2)CCOC1)c1ccc(O)nc1` [(98)], the Ki turned out to be 417 nM and the inhibition at 10 µM worked out at 103%.

For `COc1ccc(C(=O)N[C@@]2(C(=O)NCc3ccc(Nc4ccccc4C(F)(F)F)cc3)CCOC2)cc1` [(99)], the inhibition at 10 µM came out at 96%.

On to `COc1cccc(C(=O)N[C@@]2(C(=O)NCc3ccc(Nc4ccccc4C(F)(F)F)cc3)CCOC2)c1` [(100)], for which the inhibition at 10 µM turned out to be 103%.

Turning to `O=C(N[C@@]1(C(=O)NCc2ccc(Nc3ccccc3C(F)(F)F)cc2)CCOC1)c1cc(O)cc(O)c1` [(102)], the Ki is 87 nM and the inhibition at 10 µM worked out at 105%.

Turning to `COc1cc(OC)cc(C(=O)N[C@@]2(C(=O)NCc3ccc(Nc4ccccc4C(F)(F)F)cc3)CCOC2)c1` [(103)], the inhibition at 10 µM came to 87%.

On to `O=C(Cc1cccnc1)N[C@@]1(C(=O)NCc2ccc(Nc3ccccc3C(F)(F)F)cc2)CCOC1` [(104)], for which the inhibition at 10 µM worked out at 54%.

Turning to `Nc1cncc(C(=O)N[C@@]2(C(=O)NCc3ccc(Nc4ccccc4C(F)(F)F)cc3)CCOC2)c1` [(105)], the Ki was 20 nM and the inhibition at 10 µM is 113%.

Turning to `O=C(N[C@@]1(C(=O)NCc2ccc(Nc3ccccc3C(F)(F)F)cc2)CCOC1)c1cc[nH]n1` [(106)], the inhibition at 10 µM was determined as 69%.

Take `O=C(N[C@@]1(C(=O)NCc2ccc(Nc3ccccc3C(F)(F)F)cc2)CCOC1)c1ccc(F)nc1` [(107)]: the inhibition at 10 µM amounted to 95%.

Take `CCNC(=O)NC1(C(=O)NCc2ccc(Nc3ccccc3C(F)(F)F)cc2)CC1` [(108)]: the inhibition constant Ki came to 135 nM and the inhibition at 10 µM amounted to 101%.

Consider `CN(c1ccccc1)c1ccc(CNC(=O)C2(NC(=O)c3cncnc3)CC2)cc1` [(109)], for which the inhibition at 10 µM was found to be 27%.

For `CN(c1ccc(CNC(=O)C2(NC(=O)c3cncnc3)CC2)cc1)c1ccccc1Cl` [(110)], the inhibition at 10 µM was 33%.

Regarding `CCN(c1ccccc1)c1ccc(CNC(=O)C2(NC(=O)c3cncnc3)CC2)cc1` [(111)], the inhibition at 10 µM came to 20%.

For the compound `COc1ccc(N(C)c2ccc(CNC(=O)C3(NC(=O)c4cncnc4)CC3)cc2)cc1` [(112)], the inhibition at 10 µM was determined as 45%.

For `Cc1ccccc1N(C)c1ccc(CNC(=O)C2(NC(=O)c3cncnc3)CC2)cc1` [(113)], the inhibition at 10 µM came out at 7%.

For `N#Cc1ccc(F)cc1Nc1ccc(CNC(=O)C2(NC(=O)c3cncnc3)CC2)cc1` [(114)], the Ki was more than 500 nM and the inhibition at 10 µM came to 77%.

For the compound `N#Cc1c(F)cccc1Nc1ccc(CNC(=O)C2(NC(=O)c3cncnc3)CC2)cc1` [(115)], the Ki is more than 500 nM and the inhibition at 10 µM was determined as 99%.
